Data from patent publication US4782076A, “Substituted 2,3,4,9-tetrahydro-1H-carbazole-1-acetic acid derivatives, composition and use” (American Home Products Corporation, priority 1988, dated 1988).

Experiments:
[1] = system: phenylbenzoquinone-induced writhing in mice; test: Phenylbenzoquinone-induced writhing in mice (Phenylquinone Writhing in Mice); format: in vivo, Male Swiss albino mice; settings: 60 min before PBQ i.p.
Method: A further test used to determine the utility of the compounds of the present invention is designated: DRUG EFFECTS ON PHENYLBENZOQUINONE-INDUCED WRITHING IN MICE
The objective of this test is to determine the ability of test drugs to inhibit the nociceptive (pain) response of mice injected with a chemical irritant. This test is a primary screen for both peripheral and centrally acting analgesic drugs.
Male Swiss albino mice (15-25 g) are used. The animals are fasted for 18 hours prior to use but have free access to water.
(§1) Drug Preparation and Administration:
Drugs are dissolved or suspended according to their solubility in 0.5% Tween 80 in distilled water. They are administered by gastric lavage in a volume of 5 mL/kg. […]
A modification of the method of Siegmund et al, Proc. Soc. […] The number of writhing or abdominal squirming movements made by each mouse during the following 15 minute period is counted. The experiment is repeated with another group of 5 mice and the mean number of writhes per mouse for a group of 10 mice is calculated.
Drug treated and vehicle-treated control groups are compared and the percentage inhibition of writhing conferred by the drug is calculated: [formula] where c=mean number of writhes in the control group, and where t=mean number of writhes in the test drug group.

[2] = system: reaction of rats to painful stimulation applied to an inflamed paw; test: Paw pressure test in the rat; format: in vivo, Male Sprague Dawley rats; settings: po, 24 hours after Freund's adjuvant, pain threshold 1 hour later, dose which causes analgesia in 50% of the animals
Description: A still further test used to determine the utility of the compounds of the present invention is designated: PAW PRESSURE TEST IN THE RAT
The objective of this test is to assess the potency of peripheral and central acting drugs in inhibiting the reaction of rats to painful stimulation applied to an inflamed paw.
Male Sprague Dawley rats (180-200 g) are used. The animals are fasted overnight prior to drug administration.
as §1
Freund's Complete Adjuvant (FCA) is prepared by suspending 5 mg killed and dried Mycobacterium butyricum (Difco) in 1 mL liquid paraffin. The test compounds are dissolved or susended in 0.5% Tween 80 in distilled water according to their solubility. They are administered by gastric gavage in a volume of 0.5 mL/100 g body weight to groups of 10 animals.
Ten rats are used per group. The method is essentially that described by Randall et al, Arch. Int. Pharmacodyn. […] The force is continuously monitored by a pointer moving along a linear scale and is measured in grams. […] The pain threshold is determined 1 hour later in the inflamed paw and the normal paw of the treated and control groups. […]
Each animal which has a reading 1.5 times greater than the mean reading of the control-group will be considered as responsive to treatment. The number of animals showing an analgesic effect is then determined in each group. […]

[3] = system: Freund's complete adjuvant-induced hind paw edema in rats; test: Preventive adjuvant edema in rats (Preventative Adjuvant Edema); format: in vivo, Male Sprague Dawley rats; settings: 25 mg/kg, p.o., day 0, 1 and 2; edema measured day 3
Method: This test is a primary screen for anti-inflammatory drugs.
Male Sprague Dawley rats (180-200 g) are used. The animals have free access to water but food is withdrawn 18 hours before testing.
Drug Preparations and Administration:
Freund's complete adjuvant is prepared by suspending 5 mg killed and dried Mycobacterium butyricum (Difco) in 1 mL liquid paraffin. The test compounds are dissolved in distilled water or suspended in 0.5% Tween 80 in distilled water according to their solubility. For primary screening all drugs are administered by gastric lavage at the arbitrary dosage of 25 mg/kg, p.o. in a volume of 0.5 mL/100 g body weight to groups of 10 animals.
The method is essentially that described by Wax et al, J. Pharmacol. Exp. Ther., 192, 166-171 (1975). Groups of rats are injected intradermally in the left hind paw with 0.1 mL of Freund's complete adjuvant. […] The injected hind paw volume is measured before the injection of adjuvant and 24 hours after the last drug administration (day 3) by means of a plethysmometer (Buxco Electronics Inc.). […]
The mean edema volume (expressed in mL±SEM) is calculated for each group and the percentage inhibition of inflammation conferred by the drug is calculated: [formula] where c is the mean edema volume for the untreated controls and t is the means edema volume for the drug treated group.

Compound	ED50 ([1]; Mus musculus, po) [mg/kg]	ED50 [2] [mg/kg]	% Inhibition [3] [%]	% Inhibition ([1]; 25 mg/kg, p.o.) [%]
C#CCC1CCC(CC)(CC(=O)O)c2[nH]c3c(CC)cccc3c21 (single isomer, unassigned; isomer a) [Example 1, 1,8-Diethyl-2,3,4,9-tetrahydro-4-(2-propynyl)-1H-carbazole-1-acetic Acid Isomer A]	6.6	0.38	51	–
C#CCC1CCC(CC)(CC(=O)O)c2[nH]c3c(CC)cccc3c21 (single isomer, unassigned; isomer b) [Example 2, 1,8-Diethyl-2,3,4,9-tetrahydro-4-(2-propynyl)-1H-carbazole-1-acetic Acid Isomer B]	–	–	36	8
